From patent US10143666B2, “Small molecule inhibitors targeting CAG-repeat RNA toxicity in polyglutamine diseases” (The Chinese University of Hong Kong, priority 2015, dated 2018)
Values joined by “and” are separate entries in the source; they are usually repeats but may differ in a detail not shown here. Equal entries are not always repeated.

Tests used:
[1] = tested on: EGFPCAG78 RNA expressing SK-N-MC cells; assay: LDH cytotoxicity assay, EGFPCAG78 RNA expressing SK-N-MC cells; format: cell-based, human
Procedure: (§1) It was next investigated whether DB213 could mitigate expanded CAG-repeat RNA-mediated toxicity in SK-N-MC human neuronal cell. […] Taken together, DB213 could suppress the expanded CAG RNA-mediated but not polyQ protein-mediate toxicity in human neuronal cell.
(§2) SK-N-MC human neuronal cells were seeded on a 24-well plate and lactate dehydrogenase enzyme activity in the cell culture medium was measured 72 hours post-transfection and drugs treatment using the Cytotox 96 non-radioactive cytotoxicity assay (Promega).

α-synuclein fly = assay: Neurodegeneration in α-synuclein fly (Parkinson's disease model); format: in vivo, Drosophila
Procedure: (§3) Other disease fly models, including α-synuclein (Parkinson's disease)^13, CTG480 (Myotonic dystrophy 1)^14 and CGG90 (Fragile X syndrome)^15 were employed to address the specificity of DB213 on trinucleotide repeat expansion RNA toxicity.
(§4) Flies were raised at 21.5° C. on cornmeal medium supplemented with dry yeast. Pseudopupil assay was performed on 12 day-old adult flies as mentioned previously^18. Images were captured by SPOT Insight CCD camera controlled by the SPOT Advanced software (Diagnostic instruments Inc.). External eye assay was performed on 12 day-old adult flies by Olympus SZX-12 stereomicroscope. Eye images were captured using a SPOT Insight CCD camera (Diagnostic instruments Inc.).

Body weight in R6/2 mice = details: for Body weight (individual mouse): in g (unit assumed); for Body weight, differences between treatment groups: any time point, p>0.05
trMJDCAG78 cells = assay: LDH cytotoxicity assay, trMJDCAG78 cell model; format: cell-based, human; details: both RNA and polyQ protein toxicities
Procedure: as §1, §2

[2] = tested on: pre-45s rRNA in EGFPCAG27 RNA expressing cell; assay: pre-45s rRNA real-time PCR, EGFPCAG27 RNA expressing cells; format: cell-based, human
Procedure: Nucleolar stress and a chain of downstream events were triggered and ultimately led to apoptosis^7.
RNA was extracted from cells by Trizol reagent (Life Technologies), and 1 μg of purified RNA was then used for reverse-transcription using the ImPromII™ Reverse Transcription System (Promega). Random hexamer (Roche) was used as primers in reverse transcription. Taqman gene expression assays were performed on an ABI 7500 Real-time PCR system and data were analyzed as previously described^7. The following probes were used: pre-45s rRNA (Assay ID: AILJIZM) and actin (Assay ID: Hs99999903_m1).

DsRedCAG100 fly = assay: Pseudopupil assay in DsRedCAG100 fly (expanded CAG-repeat RNA toxicity); format: in vivo, Drosophila; details: 12 day-old adult flies
Source text: The synthesis of DB213 was described in Marcheschi et al. (Scheme 1)^12, see FIG. 1. By using a MJD (one kind of polyQ diseases) Drosophila disease model, the inventors established an effective screening platform to test a series of synthesized small molecules for their activity to suppress polyQ-induced neurodegeneration. […] To test whether the compounds acted on CAG-repeat RNA level, another Drosophila model, DsRedCAG100^6, was employed. […] Therefore, DB213 was confirmed to modulate expanded CAG-repeat RNA-mediated toxicity in vivo.
as §4

R6/2 Huntington's mice = assay: Open field test in R6/2 mice; format: in vivo
Procedure: The body weights were measured daily.
Open field test was performed at baseline, and on day 7. The mice were brought to the experimental room for at least 1 h acclimation to the experimental room conditions prior to testing. Activity chambers (Med Associates Inc, St Albans, Vt.; 27×27×20.3 cm) were equipped with IR beams. Mice were placed in the center of the chamber and their behavior was recorded for 30 min in 5-minute bins. Quantitative analysis was performed on the following five dependent measures: total locomotion, locomotion in the center of the open field, rearing rate in the center, total rearing frequency and velocity. Animals were tested at low-stress conditions where the light was lowered to approximately 10-30 lux of red light.

CGG90 fly = assay: Neurodegeneration in CGG90 fly (Fragile X syndrome model); format: in vivo, Drosophila
Procedure: as §3, §4

CN(C)CCCNC(=N)c1ccc(C(=N)NCCCN(C)C)cc1.Cl.Cl.Cl.Cl [DB213]
Cell death induced by EGFPCAG78 RNA (LDH assay) ([1]; 72 hours post-transfection and treatment): could be suppressed | IC50 ([1]; read-out: IC50, inhibition of cell death induced by EGFPCAG78 RNA (LDH enzyme activity reduced by 50%)): 6.9 ± 1.8 nM | Suppression of neurodegeneration (α-synuclein fly): did not suppress the neurodegeneration | Body weight (individual mouse) (Body weight in R6/2 mice; i.n. daily 50 mg/kg, Day 1, listed as Compound-5, 50 mg/kg): 20.9 and 20 and 23.9 | Body weight (group Mean) (Body weight in R6/2 mice; i.n. daily 50 mg/kg, Day 2): 21.1 g | Body weight (individual mouse) (Body weight in R6/2 mice; i.n. daily 50 mg/kg, Day 2, listed as Compound-5, 50 mg/kg): 20.6 and 17.9 and 17.5 and 25.3 | Body weight (individual mouse) (Body weight in R6/2 mice; i.n. daily 50 mg/kg, Day 3, listed as Compound-5, 50 mg/kg): 21.1 and 24 and 26.3 | Body weight (group Mean) (Body weight in R6/2 mice; i.n. daily 50 mg/kg, Day 4): 22 g | Body weight (individual mouse) (Body weight in R6/2 mice; i.n. daily 50 mg/kg, Day 4, listed as Compound-5, 50 mg/kg): 20.1 and 26.3 | Body weight (individual mouse) (Body weight in R6/2 mice; i.n. daily 50 mg/kg, Day 5, listed as Compound-5, 50 mg/kg): 19.9 and 17.4 and 23.6 and 20.7 and 25.6 | Body weight (group Mean) (Body weight in R6/2 mice; i.n. daily 50 mg/kg, Day 6): 21.5 g | Body weight (individual mouse) (Body weight in R6/2 mice; i.n. daily 50 mg/kg, Day 6, listed as Compound-5, 50 mg/kg): 19.9 and 17.6 and 21.5 and 25 | Body weight (individual mouse) (Body weight in R6/2 mice; i.n. daily 50 mg/kg, Day 7, listed as Compound-5, 50 mg/kg): 20.4 and 17.9 and 23.5 and 21.5 and 26.3 | Body weight (individual mouse) (Body weight in R6/2 mice; i.n. daily 100 mg/kg, Day 1, listed as Compound-5, 100 mg/kg): 19 and 20.6 and 23.5 and 23.2 and 23.7 | Body weight (group Mean) (Body weight in R6/2 mice; i.n. daily 100 mg/kg, Day 2): 21 g | Body weight (individual mouse) (Body weight in R6/2 mice; i.n. daily 100 mg/kg, Day 2, listed as Compound-5, 100 mg/kg): 20.3 and 19.2 and 23.2 and 20.7 and 23.6 | Body weight (individual mouse) (Body weight in R6/2 mice; i.n. daily 100 mg/kg, Day 3, listed as Compound-5, 100 mg/kg): 19.3 and 20.7 and 19.8 and 23.9 and 21.1 | Body weight (group Mean) (Body weight in R6/2 mice; i.n. daily 100 mg/kg, Day 4): 21.6 g | Body weight (individual mouse) (Body weight in R6/2 mice; i.n. daily 100 mg/kg, Day 4, listed as Compound-5, 100 mg/kg): 19.4 and 19.8 and 24 and 21.1 and 24.4 | Body weight (individual mouse) (Body weight in R6/2 mice; i.n. daily 100 mg/kg, Day 5, listed as Compound-5, 100 mg/kg): 20.6 and 19.4 and 23.6 and 20.7 and 23.9 | Body weight (group Mean) (Body weight in R6/2 mice; i.n. daily 100 mg/kg, Day 6): 21.5 g | Body weight (individual mouse) (Body weight in R6/2 mice; i.n. daily 100 mg/kg, Day 6, listed as Compound-5, 100 mg/kg): 19.8 and 23.6 and 21.1 and 24 | Body weight (group Mean) (Body weight in R6/2 mice; i.n. daily 100 mg/kg, Day 7): 21.1 g | Body weight (individual mouse) (Body weight in R6/2 mice; i.n. daily 100 mg/kg, Day 7, listed as Compound-5, 100 mg/kg): 19 and 19.4 and 24.7 | Body weight (group Mean) (Body weight in R6/2 mice; i.n. daily 200 mg/kg, Day 1): 20.9 g | Body weight (individual mouse) (Body weight in R6/2 mice; i.n. daily 200 mg/kg, Day 1, listed as Compound-5, 200 mg/kg): 19.9 and 23.6 | Body weight (individual mouse) (Body weight in R6/2 mice; i.n. daily 200 mg/kg, Day 2, listed as Compound-5, 200 mg/kg): 23.5 | Body weight (group Mean) (Body weight in R6/2 mice; i.n. daily 200 mg/kg, Day 3): 20.4 g | Body weight (individual mouse) (Body weight in R6/2 mice; i.n. daily 200 mg/kg, Day 3, listed as Compound-5, 200 mg/kg): 18.3 and 19.2 and 21.5 | Body weight (individual mouse) (Body weight in R6/2 mice; i.n. daily 200 mg/kg, Day 4, listed as Compound-5, 200 mg/kg): 17.9 and 19 | Body weight (group Mean) (Body weight in R6/2 mice; i.n. daily 200 mg/kg, Day 5): 20.7 g | Body weight (individual mouse) (Body weight in R6/2 mice; i.n. daily 200 mg/kg, Day 5, listed as Compound-5, 200 mg/kg): 18.2 and 18.3 and 22.7 | Body weight (individual mouse) (Body weight in R6/2 mice; i.n. daily 200 mg/kg, Day 6, listed as Compound-5, 200 mg/kg): 18.4 and 23.1 | Body weight (group Mean) (Body weight in R6/2 mice; i.n. daily 200 mg/kg, Day 7): 20.4 g | Body weight (group Mean) (Body weight in R6/2 mice; i.n. daily 300 mg/kg, Day 1): 21.6 g | Body weight (group Mean) (Body weight in R6/2 mice; i.n. daily 300 mg/kg, Day 2): 20.2 g | Body weight (group Mean) (Body weight in R6/2 mice; i.n. daily 300 mg/kg, Day 3): 19.5 g | Body weight (group Mean) (Body weight in R6/2 mice; i.n. daily 300 mg/kg, Day 6): 20.1 g | Body weight (group Mean) (Body weight in R6/2 mice; i.n. daily 300 mg/kg, Day 7): 20.4 g | Body weight, differences between treatment groups (Body weight in R6/2 mice; i.n. daily 50-300 mg/kg): no differences in body weight | Body weight (group Mean) (Body weight in R6/2 mice; i.v. 50 mg/kg (treatment discontinued), Day 2, n 1): 16.1 g | Body weight (group Mean) (Body weight in R6/2 mice; i.v. 50 mg/kg (treatment discontinued), Day 3, n 1): 16.3 g | Body weight (group Mean) (Body weight in R6/2 mice; i.v. 50 mg/kg (treatment discontinued), Day 4, n 1): 16.2 g | Body weight (group Mean) (Body weight in R6/2 mice; i.v. 50 mg/kg (treatment discontinued), Day 5, n 1): 16.8 g | Body weight (group Mean) (Body weight in R6/2 mice; i.v. 50 mg/kg (treatment discontinued), Day 6 (not measured, replaced by mean of days 5 and 7), n 1): 16.8 g | Body weight (group Mean) (Body weight in R6/2 mice; i.v. 50 mg/kg (treatment discontinued), Day 7, n 1): 16.8 g | Body weight (group Mean) (Body weight in R6/2 mice; i.v. twice-a-week 12.5 mg/kg, Day 3): 22 g | Body weight (group Mean) (Body weight in R6/2 mice; i.v. twice-a-week 12.5 mg/kg, Day 4): 22 g | Body weight (group Mean) (Body weight in R6/2 mice; i.v. twice-a-week 12.5 mg/kg, Day 6 (not measured, replaced by mean of days 5 and 7)): 22.4 g | Body weight (group Mean) (Body weight in R6/2 mice; i.v. twice-a-week 12.5 mg/kg, Day 7): 22.6 g | Body weight (group Mean) (Body weight in R6/2 mice; i.v. twice-a-week 25 mg/kg, Day 2): 21 g | Body weight (group Mean) (Body weight in R6/2 mice; i.v. twice-a-week 25 mg/kg, Day 3): 21.6 g | Body weight (group Mean) (Body weight in R6/2 mice; i.v. twice-a-week 25 mg/kg, Day 4): 21.6 g | Body weight (group Mean) (Body weight in R6/2 mice; i.v. twice-a-week 25 mg/kg, Day 7): 22 g | Body weight, differences between treatment groups (Body weight in R6/2 mice; i.v. twice-a-week 12.5 and 25 mg/kg): no differences in body weight | Cell death (LDH assay) (trMJDCAG78 cells): only partially inhibited the abnormal cell death | pre-45s rRNA transcription level [2]: did not alter the pre-45s rRNA transcription level | Suppression of DsRedCAG100 RNA-mediated toxicity (neurodegeneration) (DsRedCAG100 fly): suppressed the DsRedCAG100 RNA-mediated toxicity in a dose-dependent manner | Movement activity in open field test (R6/2 Huntington's mice; day 7 post-dosing): no effect on movement activity | Open field distance, rearings, distance in center, rearings in center or velocity, differences between treatment groups (R6/2 Huntington's mice; i.n. dosing, day 7): no differences | Open field distance, rearings, distance in center, rearings in center or velocity, differences between treatment groups (R6/2 Huntington's mice; i.v. dosing, baseline or day 7): no differences | Suppression of neurodegeneration (CGG90 fly): did not suppress the neurodegeneration
